From patent US8716249B2, “Compositions and methods for improving cardiovascular health” (Energy Light LLC, priority 2008, dated 2014)
Where two headings read alike, the source gives them in different places.

Tests used:
[1] = cited from earlier work
[2] = Comparison of EAA+arginine with fenofibrate in a similar population of elderly (FIG. 2)
[3] = patients with mixed hyperlipidemia, 80 mg atorvostatin daily or 200 mg fenofibrate

For `CC(C)c1c(C(=O)Nc2ccccc2)c(-c2ccccc2)c(-c2ccc(F)cc2)n1CC[C@@H](O)C[C@@H](O)CC(=O)O` [atorvostatin], which “reduction of TGs” value [1, 3] is on record?
The value was 65%.

What about the “reduction of VLDL” value [1, 3] of the same molecule?
Its value is 57%.

Which “fall of plasma triglyceride concentration” value ([2]; fenofibrate treatment for 60 days) does the source give for `CC(C)OC(=O)C(C)(C)Oc1ccc(C(=O)c2ccc(Cl)cc2)cc1` [fenofibrate] here?
The value was “approximately 33%”.

And the “effect on liver triglyceride” value ([2]; treatment for 60 days)?
The value was “no significant effect”.

With `Cc1ccc(C)c(OCCCC(C)(C)C(=O)O)c1` [gemfibrozil] as the molecule, how does the “time to maximal effects on TG” value ([1]; gemfibrozil treatment) read?
The value was no more than 4 weeks.

And the “decrease of TG concentrations” value ([1]; patients with hypertryglyceridemia and hypercholesterolemia)?
Its value is 45%.

And the “decrease of TG concentrations” value ([1]; patients with isolated hypercholesterolemia)?
Its value is 38%.
